Experimental data published in BindingDB's records for doi:10.1073/pnas.0509591102 (Mcgill University, 2005).

What was measured:
[1] = molecular target: 5-hydroxytryptamine receptor 1A (Homo sapiens, UniProt P08908)
[2] = molecular target: 5-hydroxytryptamine receptor 2A (Homo sapiens, UniProt P28223)
[3] = molecular target: Potassium voltage-gated channel subfamily H member 2 (Homo sapiens, UniProt Q12809)
Cannabinoid receptor 2 = Cannabinoid receptor 2 (Homo sapiens, UniProt P34972)
[4] = molecular target: 5-hydroxytryptamine receptor 6 (Homo sapiens, UniProt P50406)
[5] = molecular target: Kappa-type opioid receptor (Homo sapiens, UniProt P41145)
Mu-type opioid receptor = Mu-type opioid receptor (Homo sapiens, UniProt P35372)
[6] = molecular target: Sodium-dependent noradrenaline transporter (Homo sapiens, UniProt P23975)
Histamine H1 receptor = Histamine H1 receptor (Homo sapiens, UniProt P35367)
Sequence of Histamine H1 receptor (P35367 whole entry): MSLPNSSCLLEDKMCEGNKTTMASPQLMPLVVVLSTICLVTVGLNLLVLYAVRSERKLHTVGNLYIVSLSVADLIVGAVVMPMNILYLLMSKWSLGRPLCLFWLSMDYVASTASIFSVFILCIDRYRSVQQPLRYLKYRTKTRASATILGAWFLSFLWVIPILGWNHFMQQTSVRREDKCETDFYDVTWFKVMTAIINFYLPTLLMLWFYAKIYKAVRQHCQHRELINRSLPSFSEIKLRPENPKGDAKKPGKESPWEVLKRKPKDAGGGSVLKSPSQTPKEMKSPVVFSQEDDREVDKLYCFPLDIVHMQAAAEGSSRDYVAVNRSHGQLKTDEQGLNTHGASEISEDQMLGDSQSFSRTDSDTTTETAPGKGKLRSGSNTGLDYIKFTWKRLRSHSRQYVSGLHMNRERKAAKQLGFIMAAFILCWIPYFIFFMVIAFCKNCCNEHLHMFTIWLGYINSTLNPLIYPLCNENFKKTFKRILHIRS

Histamine H2 receptor = Histamine H2 receptor (Homo sapiens, UniProt P25021)
Cannabinoid receptor 1 = Cannabinoid receptor 1 (Rattus norvegicus, UniProt P20272)
[7] = molecular target: 5-hydroxytryptamine receptor 1B (Homo sapiens, UniProt P28222)
[8] = molecular target: 5-hydroxytryptamine receptor 1D (Homo sapiens, UniProt P28221)
[9] = molecular target: 5-hydroxytryptamine receptor 7 (Homo sapiens, UniProt P34969)
Sequence of 5-hydroxytryptamine receptor 7 (P34969 whole entry): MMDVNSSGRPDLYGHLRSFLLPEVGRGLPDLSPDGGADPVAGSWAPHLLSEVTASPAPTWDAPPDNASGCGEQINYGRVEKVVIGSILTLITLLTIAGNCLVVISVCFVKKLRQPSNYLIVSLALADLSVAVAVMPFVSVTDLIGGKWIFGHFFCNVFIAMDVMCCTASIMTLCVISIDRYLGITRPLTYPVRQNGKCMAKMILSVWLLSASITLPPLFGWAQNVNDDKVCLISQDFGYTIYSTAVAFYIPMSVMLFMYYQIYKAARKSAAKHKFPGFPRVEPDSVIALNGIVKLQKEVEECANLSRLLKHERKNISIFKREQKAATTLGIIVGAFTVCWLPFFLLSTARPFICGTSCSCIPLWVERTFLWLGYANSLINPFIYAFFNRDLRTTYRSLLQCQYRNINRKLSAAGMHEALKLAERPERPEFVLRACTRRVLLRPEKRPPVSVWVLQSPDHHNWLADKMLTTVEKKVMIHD

[10] = molecular target: 5-hydroxytryptamine receptor 1E (Homo sapiens, UniProt P28566)
Sequence of 5-hydroxytryptamine receptor 1E (P28566 whole entry): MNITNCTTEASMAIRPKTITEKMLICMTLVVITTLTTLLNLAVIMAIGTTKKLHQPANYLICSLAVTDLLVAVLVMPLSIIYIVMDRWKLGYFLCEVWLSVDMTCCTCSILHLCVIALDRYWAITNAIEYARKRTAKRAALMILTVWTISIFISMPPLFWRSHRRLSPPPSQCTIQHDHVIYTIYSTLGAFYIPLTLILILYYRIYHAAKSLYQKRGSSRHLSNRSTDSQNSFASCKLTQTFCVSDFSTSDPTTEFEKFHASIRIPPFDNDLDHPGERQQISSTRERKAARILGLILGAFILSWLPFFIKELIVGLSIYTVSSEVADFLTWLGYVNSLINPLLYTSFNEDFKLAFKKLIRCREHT

D(4) dopamine receptor = D(4) dopamine receptor (Homo sapiens, UniProt P21917)
Sequence of D(4) dopamine receptor (P21917 whole entry): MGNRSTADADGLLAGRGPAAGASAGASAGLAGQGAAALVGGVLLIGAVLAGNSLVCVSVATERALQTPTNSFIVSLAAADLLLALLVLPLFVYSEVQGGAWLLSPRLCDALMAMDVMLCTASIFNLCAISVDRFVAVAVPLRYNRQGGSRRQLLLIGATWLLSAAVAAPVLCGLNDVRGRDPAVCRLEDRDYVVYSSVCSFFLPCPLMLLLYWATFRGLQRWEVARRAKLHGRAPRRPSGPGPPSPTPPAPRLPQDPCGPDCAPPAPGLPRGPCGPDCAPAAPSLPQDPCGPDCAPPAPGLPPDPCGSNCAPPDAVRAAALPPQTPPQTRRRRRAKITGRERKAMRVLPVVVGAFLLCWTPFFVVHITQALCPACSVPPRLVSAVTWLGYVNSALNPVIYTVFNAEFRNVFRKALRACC

[11] = molecular target: Neuronal acetylcholine receptor subunit alpha-4 (Homo sapiens, UniProt P43681)
[12] = molecular target: 5-hydroxytryptamine receptor 3A (Homo sapiens, UniProt P46098)
Sequence of 5-hydroxytryptamine receptor 3A (P46098 whole entry): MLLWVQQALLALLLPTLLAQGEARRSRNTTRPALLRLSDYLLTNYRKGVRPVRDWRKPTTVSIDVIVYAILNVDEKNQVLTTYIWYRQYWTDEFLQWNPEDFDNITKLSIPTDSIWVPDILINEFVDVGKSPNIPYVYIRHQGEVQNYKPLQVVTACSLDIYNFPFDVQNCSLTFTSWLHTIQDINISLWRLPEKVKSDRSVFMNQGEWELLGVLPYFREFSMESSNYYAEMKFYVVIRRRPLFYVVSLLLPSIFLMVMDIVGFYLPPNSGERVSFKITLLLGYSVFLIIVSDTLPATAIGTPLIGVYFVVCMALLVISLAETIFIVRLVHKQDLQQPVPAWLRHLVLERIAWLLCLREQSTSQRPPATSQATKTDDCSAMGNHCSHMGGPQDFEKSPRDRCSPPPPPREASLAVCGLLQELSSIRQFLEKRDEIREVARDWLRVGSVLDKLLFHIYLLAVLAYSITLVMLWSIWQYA

[13] = molecular target: Beta-1 adrenergic receptor (Rattus norvegicus, UniProt P18090)
[14] = molecular target: Muscarinic acetylcholine receptor M3 (Homo sapiens, UniProt P20309)
Sequence of Muscarinic acetylcholine receptor M3 (P20309 whole entry): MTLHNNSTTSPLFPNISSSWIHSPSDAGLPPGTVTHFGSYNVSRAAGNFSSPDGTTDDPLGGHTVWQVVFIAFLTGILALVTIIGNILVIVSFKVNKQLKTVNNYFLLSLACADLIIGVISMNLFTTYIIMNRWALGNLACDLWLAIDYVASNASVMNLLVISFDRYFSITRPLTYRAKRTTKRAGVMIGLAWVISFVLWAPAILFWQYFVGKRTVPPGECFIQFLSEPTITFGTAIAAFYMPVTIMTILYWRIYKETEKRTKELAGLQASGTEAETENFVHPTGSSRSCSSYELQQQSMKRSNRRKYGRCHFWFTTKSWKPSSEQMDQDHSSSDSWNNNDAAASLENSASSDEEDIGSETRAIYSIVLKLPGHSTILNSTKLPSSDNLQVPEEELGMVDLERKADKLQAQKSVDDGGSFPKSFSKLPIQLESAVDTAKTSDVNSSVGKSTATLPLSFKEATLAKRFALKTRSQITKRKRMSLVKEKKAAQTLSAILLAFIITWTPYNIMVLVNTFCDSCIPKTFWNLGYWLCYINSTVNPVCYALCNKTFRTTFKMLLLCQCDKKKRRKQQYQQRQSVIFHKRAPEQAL

D(2) dopamine receptor = D(2) dopamine receptor (Homo sapiens, UniProt P14416)
[15] = molecular target: Alpha-1A adrenergic receptor (Homo sapiens, UniProt P35348)
D(3) dopamine receptor = D(3) dopamine receptor (Rattus norvegicus, UniProt P19020)
D(1A) dopamine receptor = D(1A) dopamine receptor (Homo sapiens, UniProt P21728)
Sequence of D(1A) dopamine receptor (P21728 whole entry): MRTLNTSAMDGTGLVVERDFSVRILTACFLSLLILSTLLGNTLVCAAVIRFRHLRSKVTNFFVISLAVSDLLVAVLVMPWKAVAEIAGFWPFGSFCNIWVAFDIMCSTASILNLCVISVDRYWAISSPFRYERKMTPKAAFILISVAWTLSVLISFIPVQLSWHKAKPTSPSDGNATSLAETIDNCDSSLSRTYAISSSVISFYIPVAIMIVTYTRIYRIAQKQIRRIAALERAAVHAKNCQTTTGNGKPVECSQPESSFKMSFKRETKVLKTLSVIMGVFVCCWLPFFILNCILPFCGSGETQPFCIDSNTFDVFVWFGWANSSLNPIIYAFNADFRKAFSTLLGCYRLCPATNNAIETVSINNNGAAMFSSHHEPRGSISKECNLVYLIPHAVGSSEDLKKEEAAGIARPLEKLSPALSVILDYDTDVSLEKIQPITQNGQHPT

[16] = molecular target: 5-hydroxytryptamine receptor 2C (Rattus norvegicus, UniProt P08909)
[17] = molecular target: ATP-dependent translocase ABCB1 (Homo sapiens, UniProt P08183)
D(1B) dopamine receptor = D(1B) dopamine receptor (Homo sapiens, UniProt P21918)
[18] = molecular target: Alpha-2B adrenergic receptor (Homo sapiens, UniProt P18089)
[19] = molecular target: Alpha-2C adrenergic receptor (Homo sapiens, UniProt P18825)
[20] = molecular target: Muscarinic acetylcholine receptor M2 (Homo sapiens, UniProt P08172)
[21] = molecular target: Muscarinic acetylcholine receptor M1 (Homo sapiens, UniProt P11229)
Sequence of Muscarinic acetylcholine receptor M1 (P11229 whole entry): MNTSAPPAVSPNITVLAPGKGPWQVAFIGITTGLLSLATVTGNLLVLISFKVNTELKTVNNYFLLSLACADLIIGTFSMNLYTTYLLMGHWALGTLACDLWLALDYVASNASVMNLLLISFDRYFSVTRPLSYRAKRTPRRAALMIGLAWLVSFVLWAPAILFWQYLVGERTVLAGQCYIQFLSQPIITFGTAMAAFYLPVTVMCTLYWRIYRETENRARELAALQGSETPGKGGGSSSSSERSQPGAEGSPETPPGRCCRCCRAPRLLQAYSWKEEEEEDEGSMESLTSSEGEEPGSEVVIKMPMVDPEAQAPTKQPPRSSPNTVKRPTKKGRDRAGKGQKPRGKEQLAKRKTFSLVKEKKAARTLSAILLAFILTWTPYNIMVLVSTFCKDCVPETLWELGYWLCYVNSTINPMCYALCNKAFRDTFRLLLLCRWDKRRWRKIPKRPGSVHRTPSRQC

[22] = molecular target: Alpha-1B adrenergic receptor (Homo sapiens, UniProt P35368)
[23] = molecular target: Muscarinic acetylcholine receptor M4 (Homo sapiens, UniProt P08173)
Sequence of Muscarinic acetylcholine receptor M4 (P08173 whole entry): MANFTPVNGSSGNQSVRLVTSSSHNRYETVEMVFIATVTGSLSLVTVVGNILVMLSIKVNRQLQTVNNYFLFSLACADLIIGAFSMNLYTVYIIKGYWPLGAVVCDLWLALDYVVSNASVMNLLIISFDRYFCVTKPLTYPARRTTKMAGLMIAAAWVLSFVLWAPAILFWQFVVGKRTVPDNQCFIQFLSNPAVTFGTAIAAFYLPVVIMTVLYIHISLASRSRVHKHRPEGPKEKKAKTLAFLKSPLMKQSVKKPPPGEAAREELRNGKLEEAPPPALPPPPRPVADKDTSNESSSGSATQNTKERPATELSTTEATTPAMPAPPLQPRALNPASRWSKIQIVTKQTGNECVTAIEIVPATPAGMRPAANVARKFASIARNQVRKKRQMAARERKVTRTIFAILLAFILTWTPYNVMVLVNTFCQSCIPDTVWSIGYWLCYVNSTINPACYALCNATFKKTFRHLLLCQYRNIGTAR

[24] = molecular target: Neuronal acetylcholine receptor subunit alpha-2 (Homo sapiens, UniProt Q15822)
[25] = molecular target: Neuronal acetylcholine receptor subunit alpha-3 (Homo sapiens, UniProt P32297)
[26] = molecular target: Sigma non-opioid intracellular receptor 1 (Rattus norvegicus, UniProt Q9R0C9)
[27] = molecular target: AP-2 complex subunit sigma (Rattus norvegicus, UniProt P62744)
Sequence of AP-2 complex subunit sigma (P62744 whole entry, looked up, one chain of several): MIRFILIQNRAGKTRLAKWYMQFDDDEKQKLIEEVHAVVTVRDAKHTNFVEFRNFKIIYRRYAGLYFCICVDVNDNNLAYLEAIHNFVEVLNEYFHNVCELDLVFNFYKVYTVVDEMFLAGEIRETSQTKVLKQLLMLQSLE

[28] = molecular target: Muscarinic acetylcholine receptor M5 (Homo sapiens, UniProt P08912)
[29] = molecular target: Beta-2 adrenergic receptor (Rattus norvegicus, UniProt P10608)
[30] = molecular target: Alpha-2A adrenergic receptor (Homo sapiens, UniProt P08913)

Measured: Ki

Sequence of 5-hydroxytryptamine receptor 1A (P08908 whole entry): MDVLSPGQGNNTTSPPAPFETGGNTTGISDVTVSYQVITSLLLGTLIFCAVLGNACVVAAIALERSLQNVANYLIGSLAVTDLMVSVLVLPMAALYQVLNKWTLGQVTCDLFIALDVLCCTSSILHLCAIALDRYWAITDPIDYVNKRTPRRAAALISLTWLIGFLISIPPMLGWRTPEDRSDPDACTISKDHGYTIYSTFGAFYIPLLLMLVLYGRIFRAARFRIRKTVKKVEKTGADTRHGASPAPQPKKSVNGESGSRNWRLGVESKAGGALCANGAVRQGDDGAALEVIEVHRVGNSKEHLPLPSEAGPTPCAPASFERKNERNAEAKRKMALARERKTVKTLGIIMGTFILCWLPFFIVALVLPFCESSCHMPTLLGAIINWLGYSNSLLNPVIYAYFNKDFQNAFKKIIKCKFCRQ

NC(=O)c1cccc(-c2cccc(OC(=O)NC3CCCCC3)c2)c1 [URB 597]
> 10 µM: all assays above
